Experimental data as given in US20250325562A1, “Intravenous Ganaxolone Formulations and Methods of Use in Treating Status Epilepticus and Other Seizure Disorders” (MARINUS PHARMACEUTICALS, INC., priority 2015, published 2025).

Test system: pilocarpine induced status epilepticus (SE)
Assay: Pilocarpine-induced status epilepticus in rats, cortical EEG power
Assay type: in vivo, Male Sprague-Dawley rats
Set-up: key to Treatment effect on EEG power vs vehicle, significance: * P < 0.05; ** P < 0.01; *** P < 0.001; **** P < 0.0001; ns = not significant
Details: 15 mg/kg IV
Method: This study was designed to determine the ability of a CAPTISOL-ganaxolone (GNX) formulation administered intravenously (IV) at 12 and 15 mg/kg to inhibit pilocarpine induced status epilepticus (SE). Allopregnanolone (Allo) (15 mg/kg; IV) was also evaluated for comparison. In this study, test drugs were administered either 15 or 60 minutes after onset of SE and compared to vehicle (30% Captisol).
Cortical EEG activity was recorded in rats before and after administration of pilocarpine to induce SE. Animals were pre-treated with LiCl to enhance and improve reliability of seizure induction and scopolamine to reduce peripheral cholinergic side effects of pilocarpine. EEG activity was recorded for 5 h after SE onset, and anticonvulsant activity was assessed by determining changes in EEG power over frequency ranges from 0.3 to 96 Hz.
Male Sprague-Dawley rats were used for the studies. Rats were surgically implanted with EEG electrodes and jugular vein catheters. The mean weight at the time of recording was 321+3 g (269-351 g).
EEG electrodes were surgically implanted in anesthetized rats. Animals were also treated with an anti-inflammatory anaelgesic (RIMADYL, (carprofen)) prior to surgery and a subcutaneous local anesthetic. Stainless steel screw electrodes chronically were implanted in the skull (0-80×¼″, Plastics-One, Roanoke, VA) such that the ends of the screws were flush with the inner skull surface. One electrode was located 3.0 mm anterior to bregma and 2 mm to the left of midline, and the second 4.0 mm posterior to bregma and 2.5 mm to the right of midline. The skull surface around the electrodes was sealed with super glue and dental acrylic, and the EEG electrode lead wires were inserted into a plastic pedestal mounted on the skull using dental acrylic. Wound edges were treated with triple antibiotic cream (bacitracin zinc, neomycin sulfate, polymyxin B sulfate; Walgreens). Following surgery, animals were administered antibiotic (ampicillin, 50 mg/kg IP at 0.4 mL/kg) and also received a chewable dose (˜10 mg) of Rimadyl following surgery. The animals were allowed to recover from EEG surgery for 1 week.
Rats were implanted with jugular-vein catheters (JVC) one week following EEG surgery. Rats were administered an anti-inflammatory/analgesic and then anesthetized and placed in a supine position. An incision was made in the skin on the right ventrolateral aspect of the neck to expose the external jugular vein which was then dissected free of surrounding fascia. A ligature was tied around the vein anteriorly to occlude blood flow returning to the heart. A second ligature was loosely tied around the vein posteriorly to create tension on the vessel during venotomy and catheter insertion. After incising the vein, a PE catheter (3Fr) was inserted into the vein and advanced approximately 30 mm towards the heart, positioning the tip at the junction of the precava and right atrium. After confirming patency of the catheter by blood withdrawal, the posterior ligature was tied off, and the catheter flushed with a “heparin-lock” solution (5 units heparin/ml saline) and plugged with a sterilized stainless steel pin. The catheter was then exteriorized by tunneling through the subcutaneous tissue to exit posterior to the head between the shoulder blades. Lastly, after suturing the catheter to the skin, all wounds were closed using sutures or wound clips. Immediately following surgery, the animals were awakened to assess catheter patency. Animals also received a chewable dose (˜10 mg) of Rimadyl following surgery to minimize pain and inflammation.
Animals were allowed a 1-week recovery time following JVC surgery. Jugular vein catheters were flushed daily with a 0.1 mL of heparin solution (5 units/mL) to maintain patency. On the day of surgery, the flushing solution contained ampicillin sulbactam (50 mg/kg). […]

## CC(=O)[C@H]1CC[C@H]2[C@@H]3CC[C@H]4C[C@H](O)CC[C@]4(C)[C@H]3CC[C@]12C [Allopregnanolone]
60′ dosing delay, 0-5 and 5-10 Hz
  reduction in SE: strong reduction in SE in the first 15′ after dosing
15 min post SE onset, 0-5 Hz, 0-15 min. post drug
  Treatment effect on EEG power vs vehicle, significance: **** (**** P < 0.0001)
15 min post SE onset, 0-5 Hz, 1-2 hrs post drug
  Treatment effect on EEG power vs vehicle, significance: *** (*** P < 0.001)
15 min post SE onset, 0-5 Hz, 2-3 hrs post drug
  Treatment effect on EEG power vs vehicle, significance: * (* P < 0.05)
15 min post SE onset, 0-5 Hz, 3-5 hrs post drug
  Treatment effect on EEG power vs vehicle, significance: ns
15 min post SE onset, 0-5 Hz, 15-30 min post drug
  Treatment effect on EEG power vs vehicle, significance: **** (**** P < 0.0001)
15 min post SE onset, 0-5 Hz, 30-60 min post drug
  Treatment effect on EEG power vs vehicle, significance: **** (**** P < 0.0001)
15 min post SE onset, 5-10 Hz, 0-15 min. post drug
  Treatment effect on EEG power vs vehicle, significance: **** (**** P < 0.0001)
15 min post SE onset, 5-10 Hz, 1-2 hrs post drug
  Treatment effect on EEG power vs vehicle, significance: *** (*** P < 0.001)
15 min post SE onset, 5-10 Hz, 2-3 hrs post drug
  Treatment effect on EEG power vs vehicle, significance: ns
15 min post SE onset, 5-10 Hz, 3-5 hrs post drug
  Treatment effect on EEG power vs vehicle, significance: ns
15 min post SE onset, 5-10 Hz, 15-30 min post drug
  Treatment effect on EEG power vs vehicle, significance: **** (**** P < 0.0001)
15 min post SE onset, 5-10 Hz, 30-60 min post drug
  Treatment effect on EEG power vs vehicle, significance: **** (**** P < 0.0001)
15 min post SE onset, 10-30 Hz, 0-15 min. post drug
  Treatment effect on EEG power vs vehicle, significance: **** (**** P < 0.0001)
15 min post SE onset, 10-30 Hz, 1-2 hrs post drug
  Treatment effect on EEG power vs vehicle, significance: ** (** P < 0.01)
15 min post SE onset, 10-30 Hz, 2-3 hrs post drug
  Treatment effect on EEG power vs vehicle, significance: ns
15 min post SE onset, 10-30 Hz, 3-5 hrs post drug
  Treatment effect on EEG power vs vehicle, significance: ns
15 min post SE onset, 10-30 Hz, 15-30 min post drug
  Treatment effect on EEG power vs vehicle, significance: **** (**** P < 0.0001)
15 min post SE onset, 10-30 Hz, 30-60 min post drug
  Treatment effect on EEG power vs vehicle, significance: *** (*** P < 0.001)
15 min post SE onset, 30-50 Hz, 0-15 min. post drug
  Treatment effect on EEG power vs vehicle, significance: **** (**** P < 0.0001)
15 min post SE onset, 30-50 Hz, 1-2 hrs post drug
  Treatment effect on EEG power vs vehicle, significance: ns
15 min post SE onset, 30-50 Hz, 2-3 hrs post drug
  Treatment effect on EEG power vs vehicle, significance: ns
15 min post SE onset, 30-50 Hz, 3-5 hrs post drug
  Treatment effect on EEG power vs vehicle, significance: ns
15 min post SE onset, 30-50 Hz, 15-30 min post drug
  Treatment effect on EEG power vs vehicle, significance: **** (**** P < 0.0001)
15 min post SE onset, 30-50 Hz, 30-60 min post drug
  Treatment effect on EEG power vs vehicle, significance: *** (*** P < 0.001)
15 min post SE onset, 50-70 Hz, 0-15 min. post drug
  Treatment effect on EEG power vs vehicle, significance: *** (*** P < 0.001)
15 min post SE onset, 50-70 Hz, 1-2 hrs post drug
  Treatment effect on EEG power vs vehicle, significance: ns
15 min post SE onset, 50-70 Hz, 2-3 hrs post drug
  Treatment effect on EEG power vs vehicle, significance: ns
15 min post SE onset, 50-70 Hz, 3-5 hrs post drug
  Treatment effect on EEG power vs vehicle, significance: ns
15 min post SE onset, 50-70 Hz, 15-30 min post drug
  Treatment effect on EEG power vs vehicle, significance: *** (*** P < 0.001)
15 min post SE onset, 50-70 Hz, 30-60 min post drug
  Treatment effect on EEG power vs vehicle, significance: ** (** P < 0.01)
15 min post SE onset, 70-96 Hz, 0-15 min. post drug
  Treatment effect on EEG power vs vehicle, significance: *** (*** P < 0.001)
15 min post SE onset, 70-96 Hz, 1-2 hrs post drug
  Treatment effect on EEG power vs vehicle, significance: ns
15 min post SE onset, 70-96 Hz, 2-3 hrs post drug
  Treatment effect on EEG power vs vehicle, significance: ns
15 min post SE onset, 70-96 Hz, 3-5 hrs post drug
  Treatment effect on EEG power vs vehicle, significance: ns
15 min post SE onset, 70-96 Hz, 15-30 min post drug
  Treatment effect on EEG power vs vehicle, significance: *** (*** P < 0.001)
15 min post SE onset, 70-96 Hz, 30-60 min post drug
  Treatment effect on EEG power vs vehicle, significance: ** (** P < 0.01)
15 minutes post-seizure onset
  reduction in SE: strong reduction in SE up to 1 h post dosing
60 min post SE onset, 0-5 Hz, 0-15 min. post drug
  Treatment effect on EEG power vs vehicle, significance: ** (** P < 0.01)
60 min post SE onset, 0-5 Hz, 1-2 hrs post drug
  Treatment effect on EEG power vs vehicle, significance: ns
60 min post SE onset, 0-5 Hz, 2-3 hrs post drug
  Treatment effect on EEG power vs vehicle, significance: ns
60 min post SE onset, 0-5 Hz, 3-5 hrs post drug
  Treatment effect on EEG power vs vehicle, significance: ns
60 min post SE onset, 0-5 Hz, 15-30 min post drug
  Treatment effect on EEG power vs vehicle, significance: ns
60 min post SE onset, 0-5 Hz, 30-60 min post drug
  Treatment effect on EEG power vs vehicle, significance: Ns
60 min post SE onset, 5-10 Hz, 0-15 min. post drug
  Treatment effect on EEG power vs vehicle, significance: ** (** P < 0.01)
60 min post SE onset, 5-10 Hz, 1-2 hrs post drug
  Treatment effect on EEG power vs vehicle, significance: ns
60 min post SE onset, 5-10 Hz, 2-3 hrs post drug
  Treatment effect on EEG power vs vehicle, significance: ns
60 min post SE onset, 5-10 Hz, 3-5 hrs post drug
  Treatment effect on EEG power vs vehicle, significance: ns
60 min post SE onset, 5-10 Hz, 15-30 min post drug
  Treatment effect on EEG power vs vehicle, significance: ns
60 min post SE onset, 5-10 Hz, 30-60 min post drug
  Treatment effect on EEG power vs vehicle, significance: Ns
60 min post SE onset, 10-30 Hz, 0-15 min. post drug
  Treatment effect on EEG power vs vehicle, significance: ns
60 min post SE onset, 10-30 Hz, 1-2 hrs post drug
  Treatment effect on EEG power vs vehicle, significance: ns
60 min post SE onset, 10-30 Hz, 2-3 hrs post drug
  Treatment effect on EEG power vs vehicle, significance: ns
60 min post SE onset, 10-30 Hz, 3-5 hrs post drug
  Treatment effect on EEG power vs vehicle, significance: ns
60 min post SE onset, 10-30 Hz, 15-30 min post drug
  Treatment effect on EEG power vs vehicle, significance: ns
60 min post SE onset, 10-30 Hz, 30-60 min post drug
  Treatment effect on EEG power vs vehicle, significance: Ns
60 min post SE onset, 30-50 Hz, 0-15 min. post drug
  Treatment effect on EEG power vs vehicle, significance: ns
60 min post SE onset, 30-50 Hz, 1-2 hrs post drug
  Treatment effect on EEG power vs vehicle, significance: ns
60 min post SE onset, 30-50 Hz, 2-3 hrs post drug
  Treatment effect on EEG power vs vehicle, significance: ns
60 min post SE onset, 30-50 Hz, 3-5 hrs post drug
  Treatment effect on EEG power vs vehicle, significance: ns
60 min post SE onset, 30-50 Hz, 15-30 min post drug
  Treatment effect on EEG power vs vehicle, significance: ns
60 min post SE onset, 30-50 Hz, 30-60 min post drug
  Treatment effect on EEG power vs vehicle, significance: Ns
60 min post SE onset, 50-70 Hz, 0-15 min. post drug
  Treatment effect on EEG power vs vehicle, significance: ns
60 min post SE onset, 50-70 Hz, 1-2 hrs post drug
  Treatment effect on EEG power vs vehicle, significance: ns
60 min post SE onset, 50-70 Hz, 2-3 hrs post drug
  Treatment effect on EEG power vs vehicle, significance: ns
60 min post SE onset, 50-70 Hz, 3-5 hrs post drug
  Treatment effect on EEG power vs vehicle, significance: ns
60 min post SE onset, 50-70 Hz, 15-30 min post drug
  Treatment effect on EEG power vs vehicle, significance: ns
60 min post SE onset, 50-70 Hz, 30-60 min post drug
  Treatment effect on EEG power vs vehicle, significance: Ns
60 min post SE onset, 70-96 Hz, 0-15 min. post drug
  Treatment effect on EEG power vs vehicle, significance: ns
60 min post SE onset, 70-96 Hz, 1-2 hrs post drug
  Treatment effect on EEG power vs vehicle, significance: ns
60 min post SE onset, 70-96 Hz, 2-3 hrs post drug
  Treatment effect on EEG power vs vehicle, significance: ns
60 min post SE onset, 70-96 Hz, 3-5 hrs post drug
  Treatment effect on EEG power vs vehicle, significance: ns
60 min post SE onset, 70-96 Hz, 15-30 min post drug
  Treatment effect on EEG power vs vehicle, significance: ns
60 min post SE onset, 70-96 Hz, 30-60 min post drug
  Treatment effect on EEG power vs vehicle, significance: Ns
